Results as given in patent publication US20060063759A1, “Tricyclic steroid hormone nuclear receptor modulators” (priority 2002, published 2006).

Legend:
glucocorticoid receptor = target: T1, glucocorticoid receptor (Homo sapiens, UniProt P04150); assay: Glucocorticoid Receptor Binding Assay ([3H]-dexamethasone, A549 cell extract); settings: [3H]-dexamethasone binding, read-out: GR Ki
T1 construct: containing 50-200 ug of A549 cell extract and 1.86 nM [^3H]-dexamethasone; host or cells: A549 human lung epithelial cells (sonicated cell extract)
T1 sequence (P04150 1-777): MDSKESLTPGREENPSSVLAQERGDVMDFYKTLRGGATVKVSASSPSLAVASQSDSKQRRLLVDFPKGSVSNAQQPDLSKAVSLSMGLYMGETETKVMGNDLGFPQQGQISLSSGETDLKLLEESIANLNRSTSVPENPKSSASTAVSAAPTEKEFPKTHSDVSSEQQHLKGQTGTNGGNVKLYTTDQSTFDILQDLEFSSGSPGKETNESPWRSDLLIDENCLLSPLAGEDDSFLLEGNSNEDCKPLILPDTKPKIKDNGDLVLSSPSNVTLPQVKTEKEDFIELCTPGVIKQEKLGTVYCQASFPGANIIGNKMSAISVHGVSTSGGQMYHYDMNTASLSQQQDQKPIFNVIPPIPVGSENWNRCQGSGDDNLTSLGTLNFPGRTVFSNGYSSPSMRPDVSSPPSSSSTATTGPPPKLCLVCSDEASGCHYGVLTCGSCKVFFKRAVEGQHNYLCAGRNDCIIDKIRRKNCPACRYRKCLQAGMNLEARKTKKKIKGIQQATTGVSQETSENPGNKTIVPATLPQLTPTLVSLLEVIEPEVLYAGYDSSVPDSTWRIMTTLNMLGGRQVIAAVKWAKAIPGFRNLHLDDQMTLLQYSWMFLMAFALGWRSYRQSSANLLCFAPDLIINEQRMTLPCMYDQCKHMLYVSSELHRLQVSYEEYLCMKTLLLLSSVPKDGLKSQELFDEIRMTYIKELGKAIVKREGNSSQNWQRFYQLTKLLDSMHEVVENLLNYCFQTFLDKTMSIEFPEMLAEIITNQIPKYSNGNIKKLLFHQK
Description: (§1) All ligands, radioligands, solvents, and reagents employed in the binding assays are readily available from commercial sources, or can be readily synthesized by the ordinarily skilled artisan.
A549 human lung epithelial cells (ATCC) are grown at a scale where gram quantity cell pellets are obtained. Harvested cell pellets are washed twice in cold phosphate buffered saline, centrifuged, and resuspended in cold assay binding buffer. The assay binding buffer consists of 10% glycerol, 50 mM Tris-HCl (pH7.2), 75 mM sodium chloride, 1.5 mM magnesium chloride, 1.5 mM EDTA, and 10 mM sodium molybdate. Cell suspensions were lysed via sonication, centrifuged, and the “extract” supernatant is snap frozen and stored at −80 C until needed.
GR binding assays are performed in a final volume of 140 ul containing 50-200 ug of A549 cell extract and 1.86 nM [^3H]-dexamethasone (Amersham) plus varying concentrations of test compound or vehicle. Briefly, assays are prepared at RT in 96-well Fisher 3356 plates, each well containing 100 ul of A549 cell extract, 20 ul of [^3H]-dexamethasone, and 20 ul of test compound/vehicle. Incubations are carried out at 4 degrees Celsius for 16 hours. After incubation, 70 ul of 3× dextran-coated charcoal solution is added to each reaction, mixed, and incubated for 8 minutes at RT. 3×-dextran-coated charcoal solution consists of 250 ml assay binding buffer, 3.75 g Norit A charcoal (Sigma), and 1.25 g dextran T-70 (Amersham). Charcoal/unbound radioligand complexes are removed by centrifugation of the plate and 140 ul of supernatant from each well is transferred to another 96 well Optiplate (Packard Instruments). 200 ul of Microscint-20 scinillant (Packard Instruments) is added to each well and amount of receptor bound radioligand is determined using Packard Instruments TopCount instrument.

human MR = target: T2, human MR (Homo sapiens, UniProt P08235); assay: Mineralocorticoid Receptor Binding Assay ([3H]-aldosterone); settings: [3H]-aldosterone binding, human MR expressed in Sf9 cells; read-out: MR Ki
T2 construct: The full length human MR gene is cloned from a human kidney or human brain cDNA library; His tag from the pAcHLT vector (own knowledge); made in house; host or cells: Sf9 insect cells (baculovirus, pAcHLT transfer vector)
T2 sequence (P08235 1-984): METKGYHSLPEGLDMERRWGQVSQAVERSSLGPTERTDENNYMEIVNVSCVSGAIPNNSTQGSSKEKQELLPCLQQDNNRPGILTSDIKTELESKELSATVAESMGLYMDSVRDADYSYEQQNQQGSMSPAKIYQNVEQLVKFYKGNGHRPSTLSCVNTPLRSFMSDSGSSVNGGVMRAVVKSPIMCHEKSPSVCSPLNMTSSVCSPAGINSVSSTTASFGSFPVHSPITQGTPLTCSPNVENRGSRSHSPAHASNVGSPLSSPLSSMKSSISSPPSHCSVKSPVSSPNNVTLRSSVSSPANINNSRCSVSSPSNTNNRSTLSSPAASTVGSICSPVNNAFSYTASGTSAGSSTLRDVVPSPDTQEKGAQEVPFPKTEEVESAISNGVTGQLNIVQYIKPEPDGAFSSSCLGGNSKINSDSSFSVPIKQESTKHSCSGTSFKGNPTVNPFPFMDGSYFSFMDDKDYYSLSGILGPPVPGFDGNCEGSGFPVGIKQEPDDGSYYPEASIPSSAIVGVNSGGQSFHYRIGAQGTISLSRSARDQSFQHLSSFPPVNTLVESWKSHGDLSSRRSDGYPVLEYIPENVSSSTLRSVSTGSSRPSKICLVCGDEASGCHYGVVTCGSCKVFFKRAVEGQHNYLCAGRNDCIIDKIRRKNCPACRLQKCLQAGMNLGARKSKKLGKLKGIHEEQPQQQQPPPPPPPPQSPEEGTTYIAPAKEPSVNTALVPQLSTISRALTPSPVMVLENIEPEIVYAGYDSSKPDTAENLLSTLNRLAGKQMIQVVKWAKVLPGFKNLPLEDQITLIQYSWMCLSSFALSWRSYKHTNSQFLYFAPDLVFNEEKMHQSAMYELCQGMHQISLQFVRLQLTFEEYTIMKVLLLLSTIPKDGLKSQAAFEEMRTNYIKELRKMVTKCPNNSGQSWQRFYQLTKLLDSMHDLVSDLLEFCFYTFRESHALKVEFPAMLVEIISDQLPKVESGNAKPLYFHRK
Description: as §1
The full length human MR gene is cloned from a human kidney or human brain cDNA library. […] The PCR reaction is performed in a final volume of 50 μl containing about 1 μl of a 50× stock solution of polymerase; about 1 μl of a 50× stock solution of dNTP; about 5 μl of an appropriate PCR buffer; about 1 μl of each primer; about […] of a H. kidney or H. brain cDNA library; and about 36 μl of water. The reaction is allowed to denature for about 30 seconds at 95 degrees Celsius, anneal for about 30 seconds at 55 degrees Celsius, and extend for about 5 minutes at 72 degrees Celsius, the sequence being repeated for a total of about 35 cycles. […] To extract the cDNA product from the agarose gel, the QIAEX II Gel Extraction protocol (QIAGEN, Inc.) is employed according to the manufacturer's instructions. Following extraction, the MR cDNA is cloned into an appropriate cloning vector (Zero Blunt TOPO PCR Cloning Kit Invitrogen, Inc.) and a pAcHLT-baculovinis transfer vector (B.D./Pharminogen), then expressed in SF9 insect cells, essentially according to manufacturer's instructions. Sf9 cells are grown at a scale where gram quantity cell pellets are obtained for subsequent use in the MR binding assay. Harvested cell pellets are lysed by repeated freeze-thaw cycles (about 4) in a suitable lysis buffer then centrifuged at about 1×10^3 G (with the supernatant being saved for future assays).
MR binding assays are performed in a final total volume of about 250 μl containing about 20-25 μg of protein and 0.5 nM of [^3H]-aldosterone plus varying concentrations of test compound or vehicle. The assay binding buffer consists of 30 mM sodium molybdate, 30 mM of TRIS-HCl, 5 mM sodium phosphate, 5 mM sodium pyrophosphate, and about 10% glycerol, pH=7.5.
Incubations are carried out at 4 degrees Celsius with shaking for about 16 hours. 200 μl aliquots of each incubation are filtered onto Millipore HA 0.45 micron 96-well filter plates, pre-moistened with cold 30 mM TRIS-HCl. The filter plates are suctioned dry with vacuum and immediately washed 3× with cold 30 mM TRIS-HCl. The plates are then punched out and the amount of receptor-ligand complex is determined by liquid scintillation counting using 4 ml of Ready Protein Plus™ liquid scintillation cocktail.
IC50 values (defined as the concentration of test compound required to decrease [^3H]-aldosterone binding by 50%/o) are then determined.

Compound	Ki (glucocorticoid receptor) [nM]	Ki (human MR) [nM]
Oc1cc(C=C2c3ccccc3CCc3c(Cl)cccc32)ccc1Cl [173(a), 2-Chloro-5-(1-chloro-10,11-dihydro-dibenzo[a,d]cyclohepten-5-ylidenemethyl)-phenol]	< 500	< 500
Oc1cc(C=C2c3ccccc3CCc3c(Cl)cccc32)ccc1Cl [173(b), 2-Chloro-5-(1-chloro-10,11-dihydro-dibenzo[a,d]cyclohepten-5-ylidenemethyl)-phenol]	< 10000	< 500
Oc1cccc(C=C2c3ccccc3CCc3cc(Cl)ccc32)c1 [181(a), 3-(2-Chloro-10,11-dihydro-dibenzo[a,d]cyclohepten-5-ylidenemethyl)-phenol]	< 500	< 500
CS(=O)(=O)Nc1cccc(C=C2c3ccccc3CCc3c(F)cccc32)c1 [184(a), N-[3-(1-Fluoro-10,11-dihydro-dibenzo[a,d]cyclohepten-5-ylidenemethyl)-phenyl]-methanesulfonamide]	< 500	< 500
Oc1cccc(C=C2c3ccccc3CCc3c(F)cccc32)c1 [185(a), 3-(1-Fluoro-10,11-dihydro-dibenzo[a,d]cyclohepten-5-ylidenemethyl)-phenol]	< 500	< 500
Oc1cccc(C=C2c3ccccc3CCc3c(F)cccc32)c1 [185(b), 3-(1-Fluoro-10,11-dihydro-dibenzo[a,d]cyclohepten-5-ylidenemethyl)-phenol]	< 1000	< 500
CS(=O)(=O)Nc1cccc(C=C2c3ccccc3CCc3ccc(Cl)cc32)c1 [188(a), N-[3-(3-Chloro-10,11-dihydro-dibenzo[a,d]cyclohepten-5-ylidenemethyl)-phenyl]-methanesulfonamide]	< 500	< 500
Oc1cccc(C=C2c3ccccc3CCc3cc(OCCN4CCOCC4)ccc32)c1 [195(a), 3-[2-(2-Morpholin-4-yl-ethoxy)-10,11-dihydro-dibenzo[a,d]cyclohepten-5-ylidenemethyl]-phenol]	< 1000	< 500

The next lines start with the values.

Ki (glucocorticoid receptor) [nM]	Ki (human MR) [nM]	Compound
< 500	< 500	O=C1Nc2ccc(Cl)cc2C(=Cc2cccc(Cl)c2)c2ccccc21 (mixture of isomers) [Example 655]
< 500	< 500	CS(=O)(=O)Nc1cccc(CC2c3ccccc3CCc3cc(Cl)ccc32)c1 (racemic) [Example 207, N-[3-(2-Chloro-10,11-dihydro-5H-dibenzo[a,d]cycloheptenylmethyl)-phenyl]-methanesulfonamide]
< 500	< 500	COc1ccc2c(c1)COc1ccccc1C2C(C)c1cccc(NS(C)(=O)=O)c1 (racemic) [Example 752, N-{3-[1-(8-Methoxy-6,11-dihydro-dibenzo[b,e]oxepin-11-yl)-ethyl]-phenyl}-methanesulfonamide]
< 500	< 500	CS(=O)(=O)Nc1cccc(C=C2c3ccccc3CCc3c2ccc(Cl)c3Cl)c1 [197(a), N-[3-(1,2-Dichloro-10,11-dihydro-dibenzo[a,d]cyclohepten-5-ylidenemethyl)-phenyl]-methanesulfonamide]
< 500	< 500	Oc1cccc(C=C2c3ccccc3CCc3c2ccc(Cl)c3Cl)c1 [198(a), 3-(1,2-Dichloro-10,11-dihydro-dibenzo[a,d]cyclohepten-5-ylidenemethyl)-phenol]
< 1000	< 500	Oc1cccc(C=C2c3ccccc3CCc3c2ccc(Cl)c3Cl)c1 [198(b), 3-(1,2-Dichloro-10,11-dihydro-dibenzo[a,d]cyclohepten-5-ylidenemethyl)-phenol]
< 500	< 500	CS(=O)(=O)Nc1cccc(C=C2c3ccccc3CCc3cc(F)ccc32)c1 [199(a), N-[3-(2-Fluoro-10,11-dihydro-dibenzo[a,d]cyclohepten-5-ylidenemethyl)-phenyl]-methanesulfonamide]
< 500	< 500	Oc1cccc(C=C2c3ccccc3CCc3cc(F)ccc32)c1 [200(a), 3-(2-Fluoro-10,11-dihydro-dibenzo[a,d]cyclohepten-5-ylidenemethyl)-phenol]
< 500	< 500	CS(=O)(=O)Nc1cccc(C=C2c3ccccc3CCc3cc(Cl)ccc32)c1 [206(b), N-[3-(2-Chloro-10,11-dihydro-dibenzo[a,d]cyclohepten-5-ylidenemethyl)-phenyl]-methanesulfonamide]
